Activity calls are given as the source filed them.
How the values were obtained:
Staphylococcus aureus = assay: Inhibitors of Bacterial Quorum Sensing Structure Activity Relationship (SAR) Analysis: Dose Response Assay. [Related pubchem assays: 700, 527 ]; assay type: functional, organism-based
[1] = target: Matrix metalloproteinase-14 (Homo sapiens, UniProt P50281); assay: Dose Response confirmation of uHTS hits for a small molecule inhibitors of MT1-MMP activation in a fluorescence assay set 1.; assay type: functional
Nonstructural protein 1 = Nonstructural protein 1 (Influenza A virus, UniProt Q194T2); assay type: functional, Influenza A virus (A/California/07/2009(H1N1))
Protein Rev = Protein Rev (Human immunodeficiency virus type 1 group M subtype B (isolate WMJ22)(HIV-1), UniProt P05866); assay: inhibitors of Rev protein–RRE RNA complex – biochemical, protein-RNA interaction, dose response (AID 842); set-up: species or system Human immunodeficiency virus 1
[2] = target: T1, Melanin-concentrating hormone receptor 1 (Homo sapiens, UniProt Q99705); assay: Fluorescence-based counterscreen for antagonists of the G-protein coupled receptor 7 (GPR7): cell-based high throughput dose response assay to identify antagonists of the melanin-concentrating hormone receptor 1 (MCHR1).; assay type: functional
[3] = target: Neuropeptides B/W receptor type 1 (Homo sapiens, UniProt P48145); assay: Fluorescence-based dose response cell-based high throughput screening assay to identify antagonists of the G-protein coupled receptor 7 (GPR7). [Related pubchem assays: 1952 (Screening assay (GPR7 antagonists).), 1880 (Summary AID.)]; assay type: functional
[4] = target: T2, Replicative DNA helicase DnaB (Mycobacterium tuberculosis, UniProt P9WMR3); assay: DnaB intein splicing inhibitors, dose response, biochemical, cell-free fluorescence (AID 449749); assay type: functional
T2 sequence (P9WMR3 whole entry): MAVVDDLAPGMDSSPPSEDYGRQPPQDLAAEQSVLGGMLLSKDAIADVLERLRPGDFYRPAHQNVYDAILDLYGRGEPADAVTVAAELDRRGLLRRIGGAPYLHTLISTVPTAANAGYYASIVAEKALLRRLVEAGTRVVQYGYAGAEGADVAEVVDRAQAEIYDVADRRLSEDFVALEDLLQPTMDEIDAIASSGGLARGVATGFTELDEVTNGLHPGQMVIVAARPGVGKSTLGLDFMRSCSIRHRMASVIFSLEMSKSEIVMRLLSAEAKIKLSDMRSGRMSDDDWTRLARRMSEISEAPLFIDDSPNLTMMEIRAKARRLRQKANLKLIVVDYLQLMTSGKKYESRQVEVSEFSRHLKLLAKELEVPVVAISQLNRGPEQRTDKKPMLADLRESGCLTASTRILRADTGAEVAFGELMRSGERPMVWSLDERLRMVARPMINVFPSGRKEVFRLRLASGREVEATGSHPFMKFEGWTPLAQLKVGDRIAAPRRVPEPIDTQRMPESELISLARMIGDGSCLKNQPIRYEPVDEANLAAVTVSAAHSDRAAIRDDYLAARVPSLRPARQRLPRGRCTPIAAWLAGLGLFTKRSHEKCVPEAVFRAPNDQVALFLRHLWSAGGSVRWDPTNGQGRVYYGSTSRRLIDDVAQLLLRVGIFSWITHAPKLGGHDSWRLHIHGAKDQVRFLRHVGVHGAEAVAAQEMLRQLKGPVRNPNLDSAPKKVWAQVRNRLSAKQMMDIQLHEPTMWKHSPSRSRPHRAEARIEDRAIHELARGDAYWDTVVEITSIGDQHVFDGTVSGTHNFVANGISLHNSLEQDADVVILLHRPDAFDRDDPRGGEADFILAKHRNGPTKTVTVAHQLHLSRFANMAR

Protein RecA = target: T3, Protein RecA (Mycobacterium tuberculosis, UniProt P9WHJ3); assay: Fluorescence Cell-Free Homogeneous Dose Retest to Identify Inhibitors of RecA-Intein Splicing Activity. [Related pubchem assays (depositor defined):AID2097, AID2223, AID489010, AID492950]; assay type: functional
T3 sequence (P9WHJ3 whole entry): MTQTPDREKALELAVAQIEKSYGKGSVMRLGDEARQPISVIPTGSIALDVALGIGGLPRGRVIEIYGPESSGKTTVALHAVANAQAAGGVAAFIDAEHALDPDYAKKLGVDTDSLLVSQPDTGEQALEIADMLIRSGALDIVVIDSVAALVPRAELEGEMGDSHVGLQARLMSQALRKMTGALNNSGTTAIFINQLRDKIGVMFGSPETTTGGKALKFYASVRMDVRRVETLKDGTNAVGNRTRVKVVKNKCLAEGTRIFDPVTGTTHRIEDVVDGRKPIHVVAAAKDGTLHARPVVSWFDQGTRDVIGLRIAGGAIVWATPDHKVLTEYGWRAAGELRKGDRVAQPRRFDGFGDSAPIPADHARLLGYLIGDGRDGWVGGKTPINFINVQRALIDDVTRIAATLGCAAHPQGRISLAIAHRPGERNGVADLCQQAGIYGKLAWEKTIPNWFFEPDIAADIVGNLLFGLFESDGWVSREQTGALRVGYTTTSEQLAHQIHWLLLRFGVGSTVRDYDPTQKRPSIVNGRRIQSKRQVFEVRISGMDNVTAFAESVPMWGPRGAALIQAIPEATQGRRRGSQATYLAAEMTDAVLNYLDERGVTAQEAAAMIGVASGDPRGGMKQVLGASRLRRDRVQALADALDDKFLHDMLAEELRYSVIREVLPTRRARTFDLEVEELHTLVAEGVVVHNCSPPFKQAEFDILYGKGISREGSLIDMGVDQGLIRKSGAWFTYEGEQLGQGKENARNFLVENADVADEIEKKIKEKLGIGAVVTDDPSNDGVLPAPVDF

[5] = target: T4, Heat shock 70 kDa protein 1A (Homo sapiens, UniProt P0DMV8); assay: small-molecule inhibition of Hsp70 – biochemical, TR-FRET (AID 786)
[6] = target: T4, Heat shock 70 kDa protein 1A; assay: small molecules displacing fluorescent ligand from Hsp70 – biochemical, fluorescence polarization, primary screen (AID 583)
[7] = target: Serine/threonine-protein phosphatase PP1-alpha catalytic subunit (Homo sapiens, UniProt P62136); assay: inhibition of protein phosphatase 1 activity – biochemical, fluorescence, dose response (AID 2403);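 note: phosphatase turnover of OMFP into fluorescent 3-O-methylfluorescein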
[8] = bead-based luminescence quenchers, dual-tagged ARNT – biochemical, AlphaScreen, cherry-pick, artefact control for ARNT-TACC3 interaction inhibitor project, dose response (AID 651705); assay type: functional;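 note: AlphaScreen bead proximity signal that flags compounds interfering with the detection technology; potency reflects signal decrease which marks the compound as an assay artifact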
[9] = target: T5, Serine/threonine-protein phosphatase (Homo sapiens, UniProt Q9BPW0); assay: Counterscreen for inhibitors of PP1: fluorescence-based biochemical high throughput dose response assay to identify inhibitors of Protein Phosphatase 5 (PP5). [Related pubchem assays: 2034 (Summary (PP5 inhibitors)), 1987 (PP5 inhibitors in singlate), 2235 (PP1 inhibitors in singlate)]
T5 sequence (Q9BPW0 whole entry): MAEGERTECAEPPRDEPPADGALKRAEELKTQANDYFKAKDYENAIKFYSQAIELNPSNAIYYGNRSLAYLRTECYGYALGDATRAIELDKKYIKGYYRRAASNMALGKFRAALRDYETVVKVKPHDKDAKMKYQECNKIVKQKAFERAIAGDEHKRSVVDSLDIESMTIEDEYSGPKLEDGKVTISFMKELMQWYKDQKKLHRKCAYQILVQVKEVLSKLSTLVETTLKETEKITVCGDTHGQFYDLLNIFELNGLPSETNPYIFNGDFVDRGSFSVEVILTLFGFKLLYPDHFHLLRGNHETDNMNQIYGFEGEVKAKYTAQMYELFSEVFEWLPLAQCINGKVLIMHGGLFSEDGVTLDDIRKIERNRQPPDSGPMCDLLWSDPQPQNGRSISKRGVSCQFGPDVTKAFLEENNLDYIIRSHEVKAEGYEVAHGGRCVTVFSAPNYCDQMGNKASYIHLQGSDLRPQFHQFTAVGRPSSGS

[10] = target: T6, Dual specificity protein phosphatase 3 (Homo sapiens, UniProt P51452); assay: inhibition constants for human DUSP3 – biochemical, colorimetric, SAR follow-up (AID 2004)
[11] = target: Nucleotide-binding oligomerization domain-containing protein 1 (Homo sapiens, UniProt Q9Y239); assay: blockers of NOD1 pathway activity – revised, SAR follow-up (AID 2333); assay type: functional
HEK293 = assay: cells; conditions: Homo sapiens;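 note: cells exposed to compound for 14 hours overnight before viability readout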
Tumor necrosis factor = Tumor necrosis factor (Homo sapiens, UniProt P01375); assay: analog potency on TNFa NF-kB signaling – cell-based, revised, SAR follow-up (AID 2337); assay type: functional
[12] = target: Nucleotide-binding oligomerization domain-containing protein 2 (Homo sapiens, UniProt Q9HC29); assay: PubChem AID 2334; assay type: functional
[13] = target: T1, Melanin-concentrating hormone receptor 1; assay: Late-stage fluorescence-based counterscreen for antagonists of the G-protein coupled receptor 7 (GPR7): cell-based dose response assay to identify antagonists of the melanin-concentrating hormone receptor 1 (MCHR1). [Related pubchem assays (depositor defined):AID1861, AID1880, AID1952, AID2148, AID2251, AID2257, AID485339]; assay type: functional
[14] = target: G2/mitotic-specific cyclin-B1 (Homo sapiens, UniProt P14635); assay: HeLa cell cycle G2/M accumulation – FACS, mechanism study for Wee1 degradation inhibitor project, late-stage follow-up, panel member Cyclin B Degradation (AID 2088)
Wee1-like protein kinase = Wee1-like protein kinase (Homo sapiens, UniProt P30291); assay: HeLa cell cycle G2/M accumulation – FACS, mechanism study for Wee1 degradation inhibitor project, late-stage follow-up, panel member Wee1 Degradation (AID 2088)
[15] = target: T7, Tyrosine-protein phosphatase non-receptor type 7 (Homo sapiens, UniProt P35236); assay: inhibition of hematopoietic tyrosine phosphatase HePTP – biochemical, set 2, SAR follow-up (AID 449736); assay type: functional
T7 sequence (P35236 whole entry): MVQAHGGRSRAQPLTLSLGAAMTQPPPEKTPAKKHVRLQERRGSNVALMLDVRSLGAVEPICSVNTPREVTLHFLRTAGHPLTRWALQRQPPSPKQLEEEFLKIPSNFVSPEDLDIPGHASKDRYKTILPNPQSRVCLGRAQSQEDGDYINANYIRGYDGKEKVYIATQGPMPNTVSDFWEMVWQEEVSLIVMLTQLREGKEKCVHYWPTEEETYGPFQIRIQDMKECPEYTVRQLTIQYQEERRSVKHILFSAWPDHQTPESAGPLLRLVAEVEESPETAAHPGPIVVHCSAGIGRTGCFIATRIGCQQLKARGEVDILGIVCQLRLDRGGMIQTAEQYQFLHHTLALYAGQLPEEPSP

[16] = target: T8, Dual specificity protein phosphatase 6 (Rattus norvegicus, UniProt Q64346); assay type: functional;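 note: confirmatory in vitro dose-response testing of MKP-3 inhibition; recombinant His-tagged MKP-3 made in E. coli BL21 with OMFP substrate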
T8 sequence (Q64346 whole entry): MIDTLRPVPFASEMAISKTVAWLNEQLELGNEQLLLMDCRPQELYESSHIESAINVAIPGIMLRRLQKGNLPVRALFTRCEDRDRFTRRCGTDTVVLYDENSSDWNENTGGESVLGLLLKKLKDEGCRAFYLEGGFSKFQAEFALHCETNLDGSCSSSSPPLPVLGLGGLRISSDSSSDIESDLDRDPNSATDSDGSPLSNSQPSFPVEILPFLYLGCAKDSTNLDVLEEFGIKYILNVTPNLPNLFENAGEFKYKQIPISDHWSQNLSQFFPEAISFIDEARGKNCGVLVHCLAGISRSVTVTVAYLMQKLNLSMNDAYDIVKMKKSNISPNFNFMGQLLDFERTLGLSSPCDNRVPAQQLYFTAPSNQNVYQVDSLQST

[17] = target: T9, Tyrosine-protein phosphatase non-receptor type 22 (Homo sapiens, UniProt Q9Y2R2); assay: SAR LYP1 Fluorescent Assay using OMFP substrate for In Vitro dose response studies - Set 3. [Related pubchem assays (depositor defined):AID1779, AID1784, AID2140, AID2686]; assay type: functional
[18] = target: T7, Tyrosine-protein phosphatase non-receptor type 7; assay: redox-active compounds inhibiting HePTP phosphatase – biochemical, fluorescence, mechanism study (AID 2068); assay type: functional
[19] = target: T6, Dual specificity protein phosphatase 3; assay: SAR VHR1 Fluorescent Assay for In Vitro dose response studies Set 2. [Related pubchem assays (depositor defined):AID1654, AID1661, AID1878]; assay type: functional
[20] = target: Tyrosine-protein phosphatase non-receptor type 12 (Homo sapiens, UniProt Q05209); assay: SAR Selectivity Analysis of small molecule inhibitors of PEST using pCAP in a fluorescence assay. [Related pubchem assays (depositor defined):AID1779, AID1784, AID2135]; assay type: functional
[21] = target: T9, Tyrosine-protein phosphatase non-receptor type 22; assay: inhibition of lymphoid tyrosine phosphatase LYP – biochemical, pCAP fluorogenic substrate, fluorescence, set 3, SAR follow-up (AID 449727); assay type: functional

T4 sequence (P0DMV8 whole entry): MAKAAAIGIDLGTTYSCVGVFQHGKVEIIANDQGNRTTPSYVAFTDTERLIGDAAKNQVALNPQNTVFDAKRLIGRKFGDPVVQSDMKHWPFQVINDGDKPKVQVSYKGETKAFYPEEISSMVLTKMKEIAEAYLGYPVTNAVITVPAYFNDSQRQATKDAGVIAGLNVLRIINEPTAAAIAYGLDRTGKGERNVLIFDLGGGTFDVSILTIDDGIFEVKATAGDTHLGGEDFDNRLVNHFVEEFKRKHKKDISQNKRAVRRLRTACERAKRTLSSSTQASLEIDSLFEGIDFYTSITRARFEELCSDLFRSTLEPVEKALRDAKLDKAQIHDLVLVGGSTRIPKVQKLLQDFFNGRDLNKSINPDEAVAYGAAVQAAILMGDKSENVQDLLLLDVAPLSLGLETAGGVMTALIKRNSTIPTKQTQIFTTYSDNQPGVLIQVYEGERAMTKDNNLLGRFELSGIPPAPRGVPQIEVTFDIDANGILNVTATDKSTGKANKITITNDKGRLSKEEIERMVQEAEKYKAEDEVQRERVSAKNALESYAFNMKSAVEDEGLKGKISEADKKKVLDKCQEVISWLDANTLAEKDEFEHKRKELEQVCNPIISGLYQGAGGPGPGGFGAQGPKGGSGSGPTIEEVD
T1 sequence (Q99705 whole entry): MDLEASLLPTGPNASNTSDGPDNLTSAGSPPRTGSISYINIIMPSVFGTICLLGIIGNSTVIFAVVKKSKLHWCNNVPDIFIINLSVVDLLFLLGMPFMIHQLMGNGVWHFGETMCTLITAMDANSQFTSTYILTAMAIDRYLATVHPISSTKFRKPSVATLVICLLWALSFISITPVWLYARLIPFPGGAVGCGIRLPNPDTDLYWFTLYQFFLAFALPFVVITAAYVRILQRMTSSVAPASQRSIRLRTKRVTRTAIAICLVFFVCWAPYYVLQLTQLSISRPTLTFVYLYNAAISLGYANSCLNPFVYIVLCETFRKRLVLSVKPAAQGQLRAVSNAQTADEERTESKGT
T9 sequence (Q9Y2R2 whole entry): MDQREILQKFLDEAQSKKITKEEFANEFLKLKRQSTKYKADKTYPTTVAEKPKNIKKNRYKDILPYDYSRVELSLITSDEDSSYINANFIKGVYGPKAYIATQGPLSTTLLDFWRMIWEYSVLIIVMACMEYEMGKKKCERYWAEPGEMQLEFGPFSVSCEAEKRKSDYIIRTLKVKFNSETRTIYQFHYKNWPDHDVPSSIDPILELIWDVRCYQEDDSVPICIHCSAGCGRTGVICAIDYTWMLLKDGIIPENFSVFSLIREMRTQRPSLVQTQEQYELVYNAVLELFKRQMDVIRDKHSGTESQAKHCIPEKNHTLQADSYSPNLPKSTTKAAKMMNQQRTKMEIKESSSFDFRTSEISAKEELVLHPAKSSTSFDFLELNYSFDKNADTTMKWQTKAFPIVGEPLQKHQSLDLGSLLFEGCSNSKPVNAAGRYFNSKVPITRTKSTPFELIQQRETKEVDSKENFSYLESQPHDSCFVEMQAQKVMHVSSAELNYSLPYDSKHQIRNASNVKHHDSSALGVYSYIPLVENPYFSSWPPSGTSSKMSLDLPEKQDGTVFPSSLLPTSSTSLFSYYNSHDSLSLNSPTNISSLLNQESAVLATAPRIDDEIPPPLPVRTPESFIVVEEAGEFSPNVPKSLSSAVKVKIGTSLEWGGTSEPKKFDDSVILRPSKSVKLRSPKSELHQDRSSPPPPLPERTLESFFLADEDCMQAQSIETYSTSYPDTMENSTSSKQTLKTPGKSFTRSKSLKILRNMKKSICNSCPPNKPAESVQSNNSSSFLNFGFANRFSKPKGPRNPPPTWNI
T6 sequence (P51452 whole entry, the tested form may be a part): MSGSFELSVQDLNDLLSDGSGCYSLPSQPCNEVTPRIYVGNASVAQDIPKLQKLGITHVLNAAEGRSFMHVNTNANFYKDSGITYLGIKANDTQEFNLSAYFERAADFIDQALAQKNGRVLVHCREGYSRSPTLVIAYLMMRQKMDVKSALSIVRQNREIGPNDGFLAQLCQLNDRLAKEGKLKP
Nonstructural protein 1, sequence (Q194T2 whole entry): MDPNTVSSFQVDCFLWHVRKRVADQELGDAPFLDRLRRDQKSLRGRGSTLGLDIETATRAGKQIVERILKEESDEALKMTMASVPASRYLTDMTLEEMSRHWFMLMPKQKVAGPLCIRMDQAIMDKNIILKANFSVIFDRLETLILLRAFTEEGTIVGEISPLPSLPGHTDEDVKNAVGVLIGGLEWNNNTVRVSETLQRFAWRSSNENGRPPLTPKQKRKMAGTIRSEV
Wee1-like protein kinase, sequence (P30291 whole entry): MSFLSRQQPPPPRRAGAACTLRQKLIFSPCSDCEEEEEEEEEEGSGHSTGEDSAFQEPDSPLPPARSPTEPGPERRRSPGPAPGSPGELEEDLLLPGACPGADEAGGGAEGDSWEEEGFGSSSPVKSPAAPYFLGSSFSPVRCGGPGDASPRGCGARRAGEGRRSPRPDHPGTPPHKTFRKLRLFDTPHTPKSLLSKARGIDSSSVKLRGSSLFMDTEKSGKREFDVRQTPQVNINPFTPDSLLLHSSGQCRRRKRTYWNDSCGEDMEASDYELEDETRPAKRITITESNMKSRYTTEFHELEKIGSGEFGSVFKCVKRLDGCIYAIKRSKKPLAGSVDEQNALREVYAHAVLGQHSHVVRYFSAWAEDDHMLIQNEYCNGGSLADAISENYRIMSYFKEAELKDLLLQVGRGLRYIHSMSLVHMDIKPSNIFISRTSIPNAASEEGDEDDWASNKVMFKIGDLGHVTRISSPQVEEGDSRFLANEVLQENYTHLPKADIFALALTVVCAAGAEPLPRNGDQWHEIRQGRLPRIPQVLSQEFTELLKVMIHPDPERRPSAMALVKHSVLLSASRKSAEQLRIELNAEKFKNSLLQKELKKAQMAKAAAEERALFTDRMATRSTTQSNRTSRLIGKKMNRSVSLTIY
Neuropeptides B/W receptor type 1, sequence (P48145 whole entry): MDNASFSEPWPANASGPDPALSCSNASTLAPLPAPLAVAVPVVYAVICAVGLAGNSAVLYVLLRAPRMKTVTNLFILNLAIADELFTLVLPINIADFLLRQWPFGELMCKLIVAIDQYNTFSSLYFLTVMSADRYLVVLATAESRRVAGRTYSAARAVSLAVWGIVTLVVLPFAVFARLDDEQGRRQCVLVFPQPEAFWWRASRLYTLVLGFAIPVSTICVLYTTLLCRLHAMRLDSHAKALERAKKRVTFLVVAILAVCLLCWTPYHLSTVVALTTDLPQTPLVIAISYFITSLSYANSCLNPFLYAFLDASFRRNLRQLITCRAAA
Tumor necrosis factor, sequence (P01375 whole entry, the tested form may be a part): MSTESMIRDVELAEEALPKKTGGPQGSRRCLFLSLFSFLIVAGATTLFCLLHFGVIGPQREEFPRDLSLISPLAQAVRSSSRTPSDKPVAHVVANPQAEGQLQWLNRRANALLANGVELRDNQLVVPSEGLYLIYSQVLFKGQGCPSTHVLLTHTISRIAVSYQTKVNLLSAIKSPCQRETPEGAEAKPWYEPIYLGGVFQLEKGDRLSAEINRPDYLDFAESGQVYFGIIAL
Nucleotide-binding oligomerization domain-containing protein 1, sequence (Q9Y239 whole entry, the tested form may be a part): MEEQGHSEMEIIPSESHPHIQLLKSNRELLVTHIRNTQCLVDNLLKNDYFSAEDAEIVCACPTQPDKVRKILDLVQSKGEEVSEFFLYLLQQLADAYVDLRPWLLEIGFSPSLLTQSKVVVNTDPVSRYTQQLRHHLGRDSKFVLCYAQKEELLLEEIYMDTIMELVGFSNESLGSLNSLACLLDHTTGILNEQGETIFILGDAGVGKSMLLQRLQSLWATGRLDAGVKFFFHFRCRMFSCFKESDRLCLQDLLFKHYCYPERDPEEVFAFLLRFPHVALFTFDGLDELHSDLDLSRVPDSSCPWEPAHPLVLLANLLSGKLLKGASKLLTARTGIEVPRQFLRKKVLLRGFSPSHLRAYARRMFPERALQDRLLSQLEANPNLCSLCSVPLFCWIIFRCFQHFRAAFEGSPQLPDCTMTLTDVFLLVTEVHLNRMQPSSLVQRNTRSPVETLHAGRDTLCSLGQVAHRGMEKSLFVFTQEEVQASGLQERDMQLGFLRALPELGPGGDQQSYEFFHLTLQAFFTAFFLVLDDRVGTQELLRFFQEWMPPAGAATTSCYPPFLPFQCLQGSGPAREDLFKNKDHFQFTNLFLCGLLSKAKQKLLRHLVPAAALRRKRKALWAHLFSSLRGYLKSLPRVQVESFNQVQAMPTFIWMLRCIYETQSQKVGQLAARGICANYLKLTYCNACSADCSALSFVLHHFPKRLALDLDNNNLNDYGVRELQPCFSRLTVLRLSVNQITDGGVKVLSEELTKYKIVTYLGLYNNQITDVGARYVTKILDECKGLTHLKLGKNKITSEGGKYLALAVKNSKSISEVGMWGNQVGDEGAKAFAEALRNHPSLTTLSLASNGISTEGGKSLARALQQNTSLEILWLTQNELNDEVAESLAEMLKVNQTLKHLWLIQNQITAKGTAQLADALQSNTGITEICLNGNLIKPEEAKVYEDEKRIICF
Protein Rev, sequence (P05866 whole entry): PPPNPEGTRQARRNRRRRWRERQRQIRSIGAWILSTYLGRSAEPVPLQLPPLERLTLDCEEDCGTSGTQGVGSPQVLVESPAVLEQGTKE
Serine/threonine-protein phosphatase PP1-alpha catalytic subunit, sequence (P62136 whole entry): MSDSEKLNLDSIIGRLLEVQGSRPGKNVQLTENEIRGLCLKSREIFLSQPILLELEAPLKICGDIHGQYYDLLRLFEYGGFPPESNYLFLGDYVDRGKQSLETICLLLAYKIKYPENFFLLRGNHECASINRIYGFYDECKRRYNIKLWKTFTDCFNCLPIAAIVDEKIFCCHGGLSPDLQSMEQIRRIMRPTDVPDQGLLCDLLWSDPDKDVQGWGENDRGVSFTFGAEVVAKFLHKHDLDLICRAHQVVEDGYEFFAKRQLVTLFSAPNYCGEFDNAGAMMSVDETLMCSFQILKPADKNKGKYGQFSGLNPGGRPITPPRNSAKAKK

CC1CCN(C(C(=O)Nc2ccc3c(c2)OCO3)c2ccccc2)CC1 (stereo not drawn)
IC50 (Staphylococcus aureus): 0.976 µM (active)

CC1=NN(c2ccccc2)C(=O)C1N=Nc1ccc(N)cc1 (stereo not drawn)
IC50 [1]: > 80 µM (inactive) | IC50 (Nonstructural protein 1): 10.5 µM (active) | IC50 (Protein Rev): > 79.4 µM (not active)

O=C(Oc1ccc(C(=S)N2CCOCC2)cc1)c1ccccc1
IC50 [2]: > 14.6 µM (not active) | IC50 [3]: > 43.8 µM (not active)

CC(=O)N1CCC2(CC1)C(C#N)=C(N)Oc1[nH]nc(C)c12
AC50 [4]: 8.21 µM (active) | EC50 (Protein RecA): 1.36 µM (active) | IC50 [5]: > 100 µM (not active) | IC50 [6]: > 100 µM (not active)

COc1cc(NS(=O)(=O)c2ccc(Nc3nc(-c4ccccn4)cs3)cc2)nc(OC)n1
IC50 [7]: 3.63 µM (active) | AC50 [8]: 88.3 µM (active) | IC50 [9]: > 67 µM (not active)

O=C(O)c1cccc2c1NC(c1ccc(Cl)cc1)C1CC=CC21 (stereo not drawn)
Ki [10]: 119 µM (inactive)

COc1ccc(-c2cc(C(=O)NC3CCCc4c3cnn4-c3ccccc3F)n(C)n2)cc1 (stereo not drawn)
IC50 [11]: 0.99 µM (active) | IC50 (HEK293): > 20 µM (inactive) | IC50 (Tumor necrosis factor): 1.36 µM (active) | IC50 [12]: 1.34 µM (active)

COc1ccc(Oc2c(Cl)cnn(-c3cc(Cl)cc(Cl)c3)c2=O)cc1
IC50 [13]: 1.1 µM (active)

Cc1cc(O)nc(-n2nc(C)cc2NC(=O)c2ccccc2Br)n1
EC50 [14]: > 49.7 µM (inactive) | EC50 (Wee1-like protein kinase): > 49.7 µM (inactive)

CCc1ccc(/N=C2/NC(=O)/C(=C/c3ccc(OCC(=O)O)c(Cl)c3)S2)cc1
IC50 [15]: 2.71 µM (active) | IC50 [16]: 65.7 µM (active) | IC50 [17]: 21.7 µM (active) | IC50 [18]: 2.89 µM (active) | IC50 [19]: 4.83 µM (active) | IC50 [20]: 7.69 µM (active) | IC50 [21]: 11.2 µM (active)

Source: ChEMBL document CHEMBL1201862, “PubChem BioAssay data set” (2004)
